Reference: US9920300B2, “Induction of germ cells from pluripotent cells” (The Board of Trustees of the Leland Stanford Junior …, priority 2009, dated 2018)

System: DAZ
Assay: shRNA silencing of DAZ2-V5 and DAZ1-4 in 293T/293FT cells (Western)
Format: cell-based, human
Conditions: for Protein level of DAZ2-V5: cotransfected
Description: All shRNAs targeting human DAZL, DAZ and BOULE were constructed using the Block-iT inducible H1 lentiviral system (Invitrogen). All shRNAs were first introduced into pENTR/H1/TO vectors and transferred into pLenti4/BLOCK-iT-DEST destination vectors (see below for sequence information). When shRNA was tested in 293FT cells for its efficacy of silencing, transient transfection without selection was carried out and cell lysate was collected after 24 h. After specific shRNA was chosen, viral supernatant was prepared as described for pLVGV. Subsequently, the viral supernatant was used to transduce human ES cells on matrigel as described above, except with zeocin selection (2 μg/ml) for 3 days for stable integration of the shRNA vector into human ES cells. Overexpression vectors were constructed by inserting the EF1μ, promoter, and DAZL, DAZ2 or BOULE cDNA into the p2k7bias vectors, selected with blasticidin (2 μg ml^−1) in culture for 3 days to ensure stable integration and subjected for each differentiation experiment. shRNA sequences were:
cDNA clones of DAZ1-4 (NCBI accession numbers: DAZ1, BC11492; DAZ2, NM_020363; DAZ3, BC113005; DAZ4, BC047480) were obtained from ATCC, PCR amplified, cloned into pENTR-D-TOPO vector, and subsequently cloned into pLenti4/TO/V5-DEST (Invitrogen). […] Co-transfection of the overexpression vector and shDAZ4 at the ratio of 1:1 and 1:2 into 293FT cells was carried out and all the lysates were collected after 24 h and loaded equally onto 10% SDS-PAGE gel.

Substance: shDAZ1: shRNA 5′-GCAAATCCTGAGACTCCAAAC-3′, SEQ ID NO: 31
- Protein level of DAZ2-V5: significantly decreased

Substance: shDAZ3: shRNA 5′-GCCACGTCCTTTGGTAGTTAA-3′, SEQ ID NO: 33
- Protein level of DAZ2-V5: significantly decreased

Substance: shDAZ4: shRNA 5′-GCATTTCCTGCTTATCCAAAT-3′, SEQ ID NO: 34
- Silencing of DAZ1-4 proteins (293FT cells): all four DAZ proteins were silenced
- Protein level of DAZ2-V5: significantly decreased

Substance: shDAZ5: shRNA 5′-GCATTTCCTGCTTATCCAAGT-3′, SEQ ID NO: 35
- Protein level of DAZ2-V5: significantly decreased
